Assay results taken from ChEMBL document CHEMBL1614632, “Trend analysis of a database of intravenous pharmacokinetic parameters in humans for 670 drug compounds” (Drug Metab Dispos, 2008).
Square brackets hold non-standard residues; d marks the D form. Peptide text beside a SMILES is read from it. dPhe(4-Cl) = N[C@H](Cc1ccc(Cl)cc1)C(=O)O; d2Nal = N[C@H](Cc1ccc2ccccc2c1)C(=O)O; dCit = NC(=O)NCCC[C@@H](N)C(=O)O; d3Pal = N[C@H](Cc1cccnc1)C(=O)O

Experiments:
[1] = clinical; details: human, in vivo, iv, Vdss
[2] = clinical; details: human, in vivo, iv, CL
[3] = clinical; details: human, in vivo, iv, t1/2
[4] = clinical; details: human, in vivo, iv
[5] = clinical; details: human, in vivo, iv; remark: listed apart in the source

| SMILES | Vd [1] | clearance [2] | half-life [3] | MRT [4] | fraction unbound [5] |
| --- | --- | --- | --- | --- | --- |
| CC(=O)OCC1=C(C(=O)O)N2C(=O)[C@@H](NC(=O)Cc3cccs3)[C@H]2SC1 [CEPHALOTHIN] | 0.07 L/kg | 1.8 mL/min/kg | 0.95 h | 0.65 h | 0.22 |
| CNC(=O)c1cccc2c(Nc3ccc(NS(C)(=O)=O)cc3OC)c3cccc(C)c3nc12 [ASULACRINE] | 0.3 L/kg | 2.6 mL/min/kg | 2.4 h | 1.9 h | 0.0011 |
| C#C[C@]1(O)CC[C@H]2[C@@H]3CCC4=CC(=O)CC[C@@H]4[C@H]3CC[C@@]21CC [LEVONORGESTREL] | 1.5 L/kg | 1.8 mL/min/kg | 9.4 h | 14 h | 0.025 |
| CC(=O)N[C@H](Cc1ccc2ccccc2c1)C(=O)N[C@H](Cc1ccc(Cl)cc1)C(=O)N[C@H](Cc1cccnc1)C(=O)N[C@@H](CO)C(=O)N[C@@H](Cc1ccc(O)cc1)C(=O)N[C@H](CCCNC(N)=O)C(=O)N[C@@H](CC(C)C)C(=O)N[C@@H](CCCNC(=N)N)C(=O)N1CCC[C@H]1C(=O)N[C@H](C)C(N)=O [CETRORELIX] (Ac-[d2Nal][dPhe(4-Cl)][d3Pal]SY[dCit]LRP[dA]-NH2) | 0.39 L/kg | 1.2 mL/min/kg | 12 h | 5.4 h | 0.14 |
| CC1(C)C(/C=C/C=C/C=C/C=C2/N(CCCCS(=O)(=O)[O-])c3ccc4ccccc4c3C2(C)C)=[N+](CCCCS(=O)(=O)[O-])c2ccc3ccccc3c21.[Na+] [INDOCYANINE GREEN] | 0.035 L/kg | 6.8 mL/min/kg | 0.065 h | 0.086 h | 0.05 |
| CC1(C)S[C@@H]2[C@H](NC(=O)[C@H](NC(=O)N3CCN(S(C)(=O)=O)C3=O)c3ccccc3)C(=O)N2[C@H]1C(=O)O [MEZLOCILLIN] | 0.09 L/kg | 2.1 mL/min/kg | 1.2 h | 0.71 h | 0.7 |
| O=C(Cc1cccs1)N[C@@H]1C(=O)N2C(C(=O)[O-])=C(C[n+]3ccccc3)CS[C@H]12 [CEPHALORIDINE] | 0.46 L/kg | 3.3 mL/min/kg | 1.5 h | 2.3 h | 0.8 |
| Cc1cccc(C)c1NC(=O)C1CCCCN1C (stereo not given) [MEPIVACAINE] | 0.95 L/kg | 6.8 mL/min/kg | 2 h | 2.5 h | 0.3 |
| O=C1CCC(N2C(=O)c3ccccc3C2=O)C(=O)N1 (stereo not given) [THALIDOMIDE] | 0.95 L/kg | 3.4 mL/min/kg | 4.7 h | 4.3 h | 0.4 |
| CCCC(=O)N1CCCN(c2nc(N)c3cc(OC)c(OC)cc3n2)CC1 [BUNAZOSIN] | 0.72 L/kg | 4.8 mL/min/kg | 2 h | 2.5 h | 0.06 |
| O=C(O)c1cc(-c2ccc(F)cc2F)ccc1O [DIFLUNISAL] | 0.097 L/kg | 0.1 mL/min/kg | 10 h | 14 h | 0.0016 |
| CN(C)CCCN1c2ccccc2CCc2cc(O)ccc21 [2-HYDROXYIMIPRAMINE] | 6.6 L/kg | 9.2 mL/min/kg | 10 h | 12 h | 0.36 |
| CNC1(c2ccccc2Cl)CCCCC1=O (stereo not given) [KETAMINE] | 2.9 L/kg | 19 mL/min/kg | 2.8 h | 2.5 h | 0.47 |
| Cc1ccc(C(=O)Nc2ccc(S(=O)(=O)O)c3cc(S(=O)(=O)O)cc(S(=O)(=O)O)c23)cc1NC(=O)c1cccc(NC(=O)Nc2cccc(C(=O)Nc3cc(C(=O)Nc4ccc(S(=O)(=O)O)c5cc(S(=O)(=O)O)cc(S(=O)(=O)O)c45)ccc3C)c2)c1 [SURAMIN] | 0.54 L/kg | 0.0057 mL/min/kg | 1200 h | 1400 h | 0.001 |
| CN(C)C(=O)CCS[C@H](SCCC(=O)O)c1cccc(/C=C/c2ccc3ccc(Cl)cc3n2)c1 | 0.11 L/kg | 0.68 mL/min/kg | 2.3 h | 2.7 h | 0.0004 |
| CCC1CN2CCC1CC2[C@@H](O)c1ccnc2ccc(OC)cc12 (stereo not given in full) [DIHYDROQUINIDINE] | 2.8 L/kg | 4.2 mL/min/kg | 5.7 h | 11 h | 0.22 |
| O=C1CN=C(c2ccccc2Cl)c2cc(Cl)ccc2N1 [DELORAZEPAM] | 2.2 L/kg | 0.17 mL/min/kg | 200 h | 220 h | 0.051 |
| Nc1cc(-c2ccncc2)c[nH]c1=O [INAMRINONE] | 1.3 L/kg | 8.9 mL/min/kg | 2 h | 2.4 h | 0.89 |
| CCC(=O)OCC(=O)[C@@]1(OC(=O)CC)[C@@H](C)C[C@H]2[C@@H]3CCC4=CC(=O)C=C[C@]4(C)[C@@]3(Cl)[C@@H](O)C[C@@]21C [BECLOMETHASONE DIPROPIONATE] | 0.29 L/kg | 36 mL/min/kg | 0.5 h | 0.1 h | 0.13 |
